According to patent US20260070899A1, “N-(2-(4-CYANOTHIAZOLIDIN-3-YL)-2-OXOETHYL)-QUINOLINE-4-CARBOXAMIDES” (AstraZeneca AB, priority 2022, published 2026):

Key:
FAP Human Plasma = target: T1, FAP Human Plasma (Homo sapiens, UniProt Q12884); assay: FAP plasma inhibition assay, human plasma; assay type: biochemical; details: human plasma dilution 1:40, Ala-Pro-AMC 75 μM; n = 1
T1 construct: Plasma (anticoagulant K2EDTA) was used as the enzyme source; tissue AZ Biobank; host or cells: pooled human plasma (K2EDTA)
T1 sequence (Q12884 24-760 limits assumed): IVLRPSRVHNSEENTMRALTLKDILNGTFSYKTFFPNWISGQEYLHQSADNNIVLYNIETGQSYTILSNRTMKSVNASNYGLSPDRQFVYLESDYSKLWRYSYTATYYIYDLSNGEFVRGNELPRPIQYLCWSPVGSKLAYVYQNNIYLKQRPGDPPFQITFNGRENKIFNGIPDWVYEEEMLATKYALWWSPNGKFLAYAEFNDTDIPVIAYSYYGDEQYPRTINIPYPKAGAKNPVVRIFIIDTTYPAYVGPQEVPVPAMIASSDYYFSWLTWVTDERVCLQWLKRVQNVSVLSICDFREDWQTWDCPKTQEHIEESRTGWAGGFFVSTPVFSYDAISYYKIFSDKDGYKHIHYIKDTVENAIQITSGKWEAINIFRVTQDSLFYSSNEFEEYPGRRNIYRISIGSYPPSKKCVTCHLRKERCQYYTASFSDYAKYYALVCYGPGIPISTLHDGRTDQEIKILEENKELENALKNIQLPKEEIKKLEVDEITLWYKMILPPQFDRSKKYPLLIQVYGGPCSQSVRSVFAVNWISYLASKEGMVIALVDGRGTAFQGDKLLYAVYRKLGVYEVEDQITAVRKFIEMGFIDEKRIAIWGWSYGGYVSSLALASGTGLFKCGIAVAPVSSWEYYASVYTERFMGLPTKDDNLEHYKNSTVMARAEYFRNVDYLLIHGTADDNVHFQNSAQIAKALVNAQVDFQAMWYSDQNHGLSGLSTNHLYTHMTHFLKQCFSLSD
Experimental: (§1) This assay was adapted from the method described in Example 89 for detection of FAP target engagement enzyme activity in plasma. Plasma (anticoagulant K2EDTA) was used as the enzyme source: Human plasma (Pooled from AZ Biobank) and Mouse plasma (AZ AST Biobank) and Cynomolgus plasma (BioIVT, #NHP00PLK2FNN, lot CYN222895). 384-Well black fluotrack PS plates (Greiner 781076) were used. 20 μL diluted plasma (Cynomolgus and Human plasma dilution 1:40, Mouse plasma dilution 1:67) in buffer (PBS, 0.1% BSA) was added to 0.6 μL compounds (in DMSO). Compounds were tested using 10 CR, 3 fold dilution series from 500 nM FAC. Two replicates for each assay point were run on the same plate. A fluorescence blank read was taken before substrate addition. Substrate, Ala-Pro-AMC (ARI-3144) stock solution (20 mM in DMSO) was diluted in buffer (PBS, 0.1% BSA) to 150 μM concentration and 20 μL added giving 75 μM FAC. Plates were incubated for 40 min at rt in the dark. The plates were read on a Beckman Paradigm® reader with excitation 360 nm and emission 465 nm. Data were analyzed in Excel (IDBS XLfit Add-In) using a one site dose response model (4-parameter logistic fit).

FAP Mouse Plasma = target: T2, FAP Mouse Plasma (Mus musculus, UniProt P97321); assay: FAP plasma inhibition assay, mouse plasma; assay type: biochemical; details: mouse plasma dilution 1:67, Ala-Pro-AMC 75 μM; n = 1
T2 construct: Plasma (anticoagulant K2EDTA) was used as the enzyme source; tissue AZ AST Biobank; host or cells: mouse plasma (K2EDTA)
T2 sequence (P97321 24-761 limits assumed): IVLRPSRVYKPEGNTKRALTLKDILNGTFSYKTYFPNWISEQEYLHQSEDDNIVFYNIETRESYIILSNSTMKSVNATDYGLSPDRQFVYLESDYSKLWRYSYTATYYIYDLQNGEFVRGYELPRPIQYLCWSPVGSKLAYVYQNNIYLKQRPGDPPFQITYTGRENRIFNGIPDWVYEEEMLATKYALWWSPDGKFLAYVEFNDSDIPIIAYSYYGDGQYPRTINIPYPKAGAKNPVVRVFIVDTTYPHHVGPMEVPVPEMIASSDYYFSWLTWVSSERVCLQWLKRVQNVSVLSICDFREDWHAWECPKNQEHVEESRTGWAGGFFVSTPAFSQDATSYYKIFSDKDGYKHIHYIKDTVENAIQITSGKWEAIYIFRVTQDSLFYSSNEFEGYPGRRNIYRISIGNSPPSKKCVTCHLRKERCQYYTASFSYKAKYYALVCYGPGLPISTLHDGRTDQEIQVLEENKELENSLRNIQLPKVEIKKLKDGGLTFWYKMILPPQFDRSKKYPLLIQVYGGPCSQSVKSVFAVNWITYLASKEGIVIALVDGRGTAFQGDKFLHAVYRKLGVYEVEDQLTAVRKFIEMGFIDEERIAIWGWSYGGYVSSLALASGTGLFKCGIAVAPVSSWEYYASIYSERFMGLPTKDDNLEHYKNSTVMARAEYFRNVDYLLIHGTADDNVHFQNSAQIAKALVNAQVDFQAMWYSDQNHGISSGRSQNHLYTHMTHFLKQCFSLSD
Experimental: as §1

hFAP = target: T3, hFAP (Homo sapiens, UniProt Q12884); assay: biochemical;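 also: substrate fluorescence read at room temperature in darkness, IC50 obtained by one-site dose-response fitting of percent inhibition against log concentration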
T3 sequence (Q12884 38-760): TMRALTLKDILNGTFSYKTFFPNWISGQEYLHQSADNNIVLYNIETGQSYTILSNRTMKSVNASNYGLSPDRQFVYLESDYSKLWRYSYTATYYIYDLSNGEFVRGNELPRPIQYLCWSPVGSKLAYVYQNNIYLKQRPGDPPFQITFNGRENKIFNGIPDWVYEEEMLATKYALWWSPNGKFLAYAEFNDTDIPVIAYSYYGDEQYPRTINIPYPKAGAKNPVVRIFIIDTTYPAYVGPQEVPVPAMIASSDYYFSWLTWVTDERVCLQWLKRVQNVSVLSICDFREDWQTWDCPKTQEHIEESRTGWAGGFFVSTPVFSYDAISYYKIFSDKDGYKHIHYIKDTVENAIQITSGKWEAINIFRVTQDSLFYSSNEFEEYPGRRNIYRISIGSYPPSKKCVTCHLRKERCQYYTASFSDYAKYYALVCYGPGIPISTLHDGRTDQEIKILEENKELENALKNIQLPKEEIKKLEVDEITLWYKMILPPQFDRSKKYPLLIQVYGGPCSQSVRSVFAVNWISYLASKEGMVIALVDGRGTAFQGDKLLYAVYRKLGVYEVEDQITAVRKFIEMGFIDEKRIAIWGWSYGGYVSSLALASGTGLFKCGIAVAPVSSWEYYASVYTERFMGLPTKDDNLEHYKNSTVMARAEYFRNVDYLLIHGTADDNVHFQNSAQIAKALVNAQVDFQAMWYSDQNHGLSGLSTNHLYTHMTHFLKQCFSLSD
Experimental: 384 low volume black plates (Greiner #784076) were used. 4 μL, 0.48 nM enzyme solution (100 mM Tris HCl, 100 mM NaCl, 0.05% Chaps, pH 7.4) was added to 40 nL compounds (in DMSO) at 10 CR, 3 fold dilution series from 50 μM FAC. Plates were incubated for 15 min at rt in dark. 4 μL, 40 μM substrate solution (100 mM Tris HCl, 100 mM NaCl, 0.05% Chaps, pH 7.4) was added to each well. Plates were centrifuged at 1000 rpm and incubated for 30 min at rt in dark. The plates were read on a PHERAstar® reader with excitation 340 nm and emission 460 nm. Data were analyzed in Genedata Screener®. IC50 values were determined by plotting % inhibition versus log compound concentration and using a one site dose response model.

| IC50 (FAP Human Plasma) | IC50 (FAP Mouse Plasma) | IC50 (hFAP) | SMILES |
| --- | --- | --- | --- |
| 0.9 nM | 0.9 nM | 0.6 nM | CC(C)(O)c1ccc2nccc(C(=O)NCC(=O)N3CSC[C@H]3C#N)c2c1 [Example 16, (R)—N-(2-(4-Cyanothiazolidin-3-yl)-2-oxoethyl)-6-(2-hydroxypropan-2-yl)quinoline-4-carboxamide] |
| 0.7 nM | 0.7 nM | 0.43 nM | N#C[C@@H]1CSCN1C(=O)CNC(=O)c1ccnc2ccc(C3(C#N)CC3)cc12 [Example 70, (R)-6-(1-Cyanocyclopropyl)-N-(2-(4-cyanothiazolidin-3-yl)-2-oxoethyl)quinoline-4-carboxamide] |
| 1.5 nM | 2.1 nM | 0.81 nM | COC(C)(C)c1ccc2nccc(C(=O)NCC(=O)N3CSC[C@H]3C#N)c2c1 [Example 18, (R)—N-(2-(4-Cyanothiazolidin-3-yl)-2-oxoethyl)-6-(2-methoxypropan-2-yl)quinoline-4-carboxamide] |
| 0.5 nM | 0.7 nM | 0.71 nM | CCOC1(c2ccc3nccc(C(=O)NCC(=O)N4CSC[C@H]4C#N)c3c2)CCOCC1 [Example 23, (R)—N-(2-(4-Cyanothiazolidin-3-yl)-2-oxoethyl)-6-(4-ethoxytetrahydro-2H-pyran-4-yl)quinoline-4-carboxamide] |
| 0.3 nM | 0.5 nM | 0.23 nM | N#C[C@@H]1CSCN1C(=O)CNC(=O)c1ccnc2ccc(C3CCOCC3)cc12 [Example 20, (R)—N-(2-(4-Cyanothiazolidin-3-yl)-2-oxoethyl)-6-(tetrahydro-2H-pyran-4-yl)quinoline-4-carboxamide] |
| 0.1 nM | 0.2 nM |  | CO[C@H]1CC[C@H](c2ccc3nccc(C(=O)NCC(=O)N4CSC[C@H]4C#N)c3c2)CC1 (single isomer, unassigned) [Example 78, N-(2-((R)-4-Cyanothiazolidin-3-yl)-2-oxoethyl)-6-((1r,4R*)-4-methoxycyclohexyl)quinoline-4-carboxamide] |
| 0.5 nM | 1 nM | 0.63 nM | N#C[C@@H]1CSCN1C(=O)CNC(=O)c1ccnc2ccc(C3CCCCO3)cc12 (mixture of isomers) [Example 32, N-(2-((R)-4-Cyanothiazolidin-3-yl)-2-oxoethyl)-6-((RS)-tetrahydro-2H-pyran-2-yl)quinoline-4-carboxamide] |
| 0.3 nM | 0.5 nM | 0.45 nM | N#C[C@@H]1CSCN1C(=O)CNC(=O)c1ccnc2ccc(C3(O)CCOCC3)cc12 [Example 15, (R)—N-(2-(4-Cyanothiazolidin-3-yl)-2-oxoethyl)-6-(4-hydroxy-tetrahydro-2H-pyran-4-yl)quinoline-4-carboxamide] |
| 0.3 nM | 0.5 nM |  | CC(C)(F)COc1ccc2nccc(C(=O)NCC(=O)N3CSC[C@H]3C#N)c2c1 [Example 3, (R)—N-(2-(4-Cyanothiazolidin-3-yl)-2-oxoethyl)-6-(2-fluoro-2-methylpropoxy)quinoline-4-carboxamide] |
